Measurements as given in PubChem BioAssay AID256 (DTP/NCI, 2004).
Toxic doses and inconclusive results are not listed.

Tested on: CD2F1 mice, L1210 leukemia ip, survival T/C
Experiment: NCI In Vivo Anticancer Drug Screen. Data for tumor model L1210 Leukemia (intraperitoneal) in CD2F1 (CDF1) mice
Details: higher = longer survival
In short: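 Mice carrying a transplanted tumor received test compound or vehicle alone. The value is the measurement in the treated group divided by that in the vehicle-treated control group.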

## C=C(OC)C(Nc1cc(OC)c(OC)cc1C(=O)OC1CC(O[C@@H]2C(=O)C(NC(=O)OC)=C3/C(=C\CSSSC)[C@]2(O)C#C/C=C\C#C[C@@H]3OC2OC(C)C(NOC3CC(O)C(SC)C(C)O3)C(O)C2OC2CC(OC)C(NCCC)CO2)OC(C)C1O)OC (stereo partly drawn)
endpoint: median survival time, dose: 0.1 micrograms/kg/injection, schedule: Q01DX005 (ip), vehicle: methylcellulose (MC)
  T/C: 117 % of control
endpoint: median survival time, dose: 0.2 micrograms/kg/injection, schedule: Q01DX005 (ip), vehicle: methylcellulose (MC)
  T/C: 117 % of control
endpoint: median survival time, dose: 0.2 micrograms/kg/injection, schedule: Q04DX003 (ip), vehicle: methylcellulose (MC)
  T/C: 109 % of control
endpoint: median survival time, dose: 0.3 micrograms/kg/injection, schedule: Q01DX005 (ip), vehicle: saline + alcohol
  T/C: 180 % of control
endpoint: median survival time, dose: 0.32 micrograms/kg/injection, schedule: Q01DX005 (ip), vehicle: saline + alcohol
  T/C: 119 % of control
endpoint: median survival time, dose: 0.4 micrograms/kg/injection, schedule: Q01DX005 (ip), vehicle: methylcellulose (MC)
  T/C: 118 % of control
endpoint: median survival time, dose: 0.4 micrograms/kg/injection, schedule: Q04DX003 (ip), vehicle: methylcellulose (MC)
  T/C: 118 % of control
endpoint: median survival time, dose: 0.5 micrograms/kg/injection, schedule: Q01DX005 (ip), vehicle: saline + alcohol
  T/C: 180 % of control
endpoint: median survival time, dose: 0.64 micrograms/kg/injection, schedule: Q01DX005 (ip), vehicle: saline + alcohol
  T/C: 151 % of control
endpoint: median survival time, dose: 0.8 micrograms/kg/injection, schedule: Q01DX001 (ip), vehicle: methylcellulose (MC)
  T/C: 113 % of control
endpoint: median survival time, dose: 0.8 micrograms/kg/injection, schedule: Q01DX005 (ip), vehicle: saline + alcohol
  T/C: 170 % of control
endpoint: median survival time, dose: 0.8 micrograms/kg/injection, schedule: Q04DX003 (ip), vehicle: methylcellulose (MC)
  T/C: 122 % of control
endpoint: median survival time, dose: 1.28 micrograms/kg/injection, schedule: Q01DX005 (ip), vehicle: saline + alcohol
  T/C: 170 % of control
endpoint: median survival time, dose: 1.3 micrograms/kg/injection, schedule: Q01DX005 (ip), vehicle: saline + alcohol
  T/C: 180 % of control
endpoint: median survival time, dose: 2.1 micrograms/kg/injection, schedule: Q01DX005 (ip), vehicle: saline + alcohol
  T/C: 180 % of control
endpoint: median survival time, dose: 3.2 micrograms/kg/injection, schedule: Q01DX005 (ip), vehicle: methylcellulose (MC)
  T/C: 162 % of control
endpoint: median survival time, dose: 6.4 micrograms/kg/injection, schedule: Q01DX001 (ip), vehicle: methylcellulose (MC)
  T/C: 150 % of control
endpoint: median survival time, dose: 6.4 micrograms/kg/injection, schedule: Q01DX005 (ip), vehicle: methylcellulose (MC)
  T/C: 94 % of control
endpoint: median survival time, dose: 6.4 micrograms/kg/injection, schedule: Q04DX003 (ip), vehicle: methylcellulose (MC)
  T/C: 152 % of control
endpoint: median survival time, dose: 12.8 micrograms/kg/injection, schedule: Q01DX001 (ip), vehicle: methylcellulose (MC)
  T/C: 150 % of control
endpoint: median survival time, dose: 25.6 micrograms/kg/injection, schedule: Q01DX001 (ip), vehicle: methylcellulose (MC)
  T/C: 104 % of control

## CNCc1ccc([N+](=O)[O-])cc1
endpoint: mean survival time, dose: 50.0 mg/kg/injection, schedule: Q01DX009 (ip), vehicle: saline
  T/C: 104 % of control
endpoint: mean survival time, dose: 100.0 mg/kg/injection, schedule: Q01DX009 (ip), vehicle: saline
  T/C: 100 % of control
endpoint: mean survival time, dose: 200.0 mg/kg/injection, schedule: Q01DX009 (ip), vehicle: saline
  T/C: 93 % of control

## O=S(=O)(c1ccc(NC(=S)N/N=C/c2ccccc2O)cc1)N1CCCCC1
endpoint: mean survival time, dose: 12.5 mg/kg/injection, schedule: Q01DX009 (ip), vehicle: olive oil, sesame oil, peanut oil
  T/C: 98 % of control
endpoint: mean survival time, dose: 25.0 mg/kg/injection, schedule: Q01DX009 (ip), vehicle: olive oil, sesame oil, peanut oil
  T/C: 94 % of control
endpoint: mean survival time, dose: 50.0 mg/kg/injection, schedule: Q01DX009 (ip), vehicle: olive oil, sesame oil, peanut oil
  T/C: 102 % of control
endpoint: mean survival time, dose: 100.0 mg/kg/injection, schedule: Q01DX009 (ip), vehicle: olive oil, sesame oil, peanut oil
  T/C: 104 % of control
endpoint: mean survival time, dose: 200.0 mg/kg/injection, schedule: Q01DX009 (ip), vehicle: olive oil, sesame oil, peanut oil
  T/C: 94 % of control
endpoint: mean survival time, dose: 400.0 mg/kg/injection, schedule: Q01DX009 (ip), vehicle: olive oil, sesame oil, peanut oil
  T/C: 96 % of control

## C=C(c1ccccc1)C(C)C(=O)OCC (stereo not drawn)
endpoint: mean survival time, dose: 100.0 mg/kg/injection, schedule: Q04DX003 (ip), vehicle: saline with Tween-80
  T/C: 103 % of control
endpoint: mean survival time, dose: 200.0 mg/kg/injection, schedule: Q04DX003 (ip), vehicle: saline with Tween-80
  T/C: 103 % of control
endpoint: mean survival time, dose: 400.0 mg/kg/injection, schedule: Q04DX003 (ip), vehicle: saline with Tween-80
  T/C: 100 % of control
